The text below walks through data of patent US20260250312A1, “ANTIBACTERIAL COMPOUNDS ELIMINATING DORMANT BACTERIAL CELLS” (UNIVERSITÉ D'AIX-MARSEILLE, priority 2022, published 2026).

For test [1], the system named is Staphylococcus aureus (ATCC25923). As to the kind of experiment: Microdilution MIC assay (CLSI-based), S. aureus. It counts as cell-based. The following applies: 20 hours incubation at 35-37° C., MHB; for MIC: read-out: Minimum inhibitory concentration S. aureus ATCC25923. As for the experimental part: (§1) The antibacterial activity of compounds was measured using a standard microdilution assay based on the Clinical and Laboratory Standards Institute (CLSI) guidelines. This method was slightly modified. Indeed, assay volumes were increased to 200 μL to improve reproducibility. The chemical compounds to be tested were in the form of salts for biological testing.
(§2) Bacteria tested: Antibacterial activities of the compounds were tested on Staphylococcus aureus (ATCC25923), Enterococcus faecalis (ATCC29212), Escherichia coli ([…]) and Pseudomonas aeruginosa (ATCC27853).
(§3) Preparation of the Preculture: Mueller Hinton Agar plates were inoculated with frozen biological strain in order to obtain separate colonies and the plates were incubated during 24 h at 35-37° C. 3 colonies of similar aspect were picked out, resuspended in 5 mL of fresh Mueller Hinton broth 1× (MHB) and incubated with shaking (160 rpm) at 35-37° C. overnight.
(§4) 0.1 mL of bacteria in exponential phase were suspended in 9.9 mL of MHB (1:100 dilution). 0.1 mL of the 1:100 dilution were dispensed into the wells of microplates containing 0.1 ml of serial compounds dilutions to yield ca. 5×10^5 CFU/mL. In parallel, the stocks solutions of chemical compounds were first diluted in appropriate solvent to a final concentration of 5 mg/mL. 8 μL were dispended into the first wells of the microplates containing 0.1 ml of sterile broth and a 0.5 cascade dilution was performed in MHB from 0.2 mg/mL. One control was made for each strain tested. […] Tests were performed in triplicate.
(§5) Reading of the Results: After incubation, the filter was replaced with a transparent film, and an optical density reading was then taken in an iEMS plate spectrophotometer at 620 nm. Calculation of the minimum inhibitory concentration (MIC) was performed.
(In general: In broth dilution the organism is exposed to a series of concentrations in liquid medium.)

In test [2] the test system is Enterococcus faecalis (ATCC29212). The experiment in a line: Microdilution MIC assay (CLSI-based), E. faecalis. Type of test: cell-based. The note with it: 20 hours incubation at 35-37° C., MHB; for MIC: read-out: Minimum inhibitory concentration E. faecalis ATCC29212. As to the method: as §1, §2, §3, §4, §5
Test [3] relates to Escherichia coli (ATCC28922). The experiment in a line: Microdilution MIC assay (CLSI-based), E. coli. Type of test: cell-based. The following applies: 20 hours incubation at 35-37° C., MHB; for MIC: read-out: Minimum inhibitory concentration E. coli ATCC28922. As for the experimental part:
as §1, §2, §3, §4, §5

Test [4] relates to Pseudomonas aeruginosa (ATCC27853). The experiment in a line: Microdilution MIC assay (CLSI-based), P. aeruginosa. Type of test: cell-based. The following applies: 20 hours incubation at 35-37° C., MHB; for MIC: read-out: Minimum inhibitory concentration P. aeruginosa ATCC27853. As to the method:
as §1, §2, §3, §4, §5

The next test concerns CHO-K1 cells. The experiment in a line: WST1 cytotoxicity test. It counts as cell-based, Chinese hamster. The following applies: Cricetulus griseus, CHO-K1, 24 h, WST1, 24 hours at 37° C.; read-out: IC50 CHO. The source says:
Cytotoxicity: The test WST1 was used to measure the cytotoxic activity of the compounds of the invention. The test WST1 is a colorimetric test allowing to measure the viability and the degree of cell proliferation. It is based on cleavage of the colorless tetrazolium salts WST-1 (4—[3-(4-iodophenyl)-2-(4-nitrophenyl)-2H-5-tetrazolio]-1,3-benzene disulfonate) with mitochondrial dehydrogenases to the yellow-colored formazan derivative, which may be quantified by spectrophotometry at 420-480 nm. The WST1 test was performed on Chinese hamster ovary (CHO) cells. The CHO-K1 cells (ATCC, USA) were kept in culture in McCoy's 5A medium supplemented with 10% fetal calf serum, 2 mM of L-glutamine and a mixture of penicillin-streptomycin (100 U/ml: 10 μg/mL). The culture was incubated at 37° C. under an atmosphere enriched in CO2 (5%), and subcultured every two days. The cells were transferred into 96-well plates (25,000 cells/mL) in whole McCoy's 5A medium, and maintained for 24 hours at 37° C. under a humid atmosphere enriched in CO2 (5%). Increasing concentrations of tested compounds were added to the wells, each compound was tested in replicates and 8 growth controls containing the cells in the medium alone were included in each series of tests. After 24 hours at 37° C. (5% CO2), the culture medium was removed, the cells were rinsed in phosphate buffer (PBS) and 50 μL of PBS containing 10% of reagent WST1 were added to each well. After 20 minutes of incubation at 37° C., the results were read by spectrophotometry at 450 nm. The results are expressed in dose-response relationships, modeled by nonlinear regression analysis using the TableCurve software.
Cytotoxicity: The same WST1 test as described in Example 2 above was used.

The mark [5] stands for this setting: Staphylococcus aureus, ATCC25923, 20 h.
Setting [6] is: Enterococcus faecalis, ATCC29212, 20 h.
[7] abbreviates: Escherichia coli, ATCC28922, 20 h.
[8] abbreviates: Pseudomonas aeruginosa, ATCC27853, 20 h.

Values after ≈ are worked out from the molar mass of the structure shown. Values joined by “and” are separate entries in the source; they are usually repeats but may differ in a detail not shown here. Identical values can stand only once. Like-named read-outs stand apart in the source and are kept apart here.

`COC(=O)[C@@H](NC(=O)CC[C@@H](C)[C@H]1CCC2C3C(CC[C@@]21C)[C@@]1(C)CC[C@H](NCCCN(C)CCCN)C[C@H]1C[C@H]3O)C(C)C` (stereo partly drawn) [Compound S026, methyl ((4R)-4-((3S,5S,7R,10S,13R,17R)-3-((3-((3-aminopropyl)(methyl)amino)propyl)amino)-7-hydroxy-10,13-dimethylhexadecahydro-1H-cyclopenta[a]phenanthren-17-yl)pentanoyl)-L-valinate]: the MIC in test [1] (setting [5]) is 25 µM and 16 µg/mL; in test [2] (setting [6]) it was 50 µM and 32 µg/mL; in test [3] (setting [7]), 25 µM and 16 µg/mL; in test [4] (setting [8]), 200 µM and 126 µg/mL. In the test on CHO-K1 cells, the IC50 (commonly the concentration that gives 50% inhibition) was 11.4 µM and 7.2 µg/mL.

On to `COC(=O)CNC(=O)CC[C@@H](C)[C@H]1CCC2C3C(CC[C@@]21C)[C@@]1(C)CC[C@H](NCCCN(CCCN)CCCN)C[C@H]1C[C@H]3O` (stereo partly drawn) [Compound S005, methyl ((4R)-4-((3S,5S,7R,10S,13R,17R)-3-((3-(bis(3-aminopropyl)amino)propyl)amino)-7-hydroxy-10,13-dimethylhexadecahydro-1H-cyclopenta[a]phenanthren-17-yl)pentanoyl)glycinate], for which the MIC was 12.5 µM and 8 µg/mL in test [1] (setting [5]); 200 µM and 128 µg/mL in test [2] (setting [6]); > 200 µM and > 126 µg/mL in test [3] (setting [7]); > 200 µM and > 126 µg/mL in test [4] (setting [8]). In addition, in the test on CHO-K1 cells, the IC50 is > 100 µM and > 64 µg/mL.

For `COC(=O)[C@@H](NC(=O)CC[C@@H](C)[C@H]1CCC2C3C(CC[C@@]21C)[C@@]1(C)CC[C@H](NCCCCN)C[C@H]1C[C@H]3O)C(C)C` (stereo partly drawn) [Compound S043, methyl ((4R)-4-((3S,5S,7R,10S,13R,17R)-3-((4-aminobutyl)amino)-7-hydroxy-10,13-dimethylhexadecahydro-1H-cyclopenta[a]phenanthren-17-yl)pentanoyl)-L-valinate], the MIC is 25 µM and 16 µg/mL in test [1] (setting [5]); 25 µM and 16 µg/mL in test [2] (setting [6]); 50 µM and 32 µg/mL in test [3] (setting [7]); 200 µM and 128 µg/mL in test [4] (setting [8]). The IC50 in the test on CHO-K1 cells is 107 µM and 61.9 µg/mL.

`COC(=O)[C@H]1CCCN1C(=O)CC[C@@H](C)[C@H]1CCC2C3C(CC[C@@]21C)[C@@]1(C)CC[C@H](NCCCNCCCN)C[C@H]1C[C@H]3O` (stereo partly drawn) [Compound S045, methyl ((4R)-4-((3S,5S,7R,10S,13R,17R)-3-((3-((3-aminopropyl)amino)propyl)amino)-7-hydroxy-10,13-dimethylhexadecahydro-1H-cyclopenta[a]phenanthren-17-yl)pentanoyl)-D-prolinate]: the MIC was 2 µg/mL and 3.13 µM in test [1] (setting [5]); 4 µg/mL and 6.25 µM in test [2] (setting [6]); 4 µg/mL and 6.25 µM in test [3] (setting [7]); 16 µg/mL and 25 µM in test [4] (setting [8]). Besides, the IC50 in the test with CHO-K1 cells is 7.77 µg/mL and 12.6 µM.

For `COC(=O)[C@H](NC(=O)CC[C@@H](C)[C@H]1CCC2C3C(CC[C@@]21C)[C@@]1(C)CC[C@H](NCCCNCCCN)C[C@H]1C[C@H]3O)C(C)C` (stereo partly drawn) [Compound S021, methyl ((4R)-4-((3S,5S,7R,10S,13R,17R)-3-((3-((3-aminopropyl)amino)propyl)amino)-7-hydroxy-10,13-dimethylhexadecahydro-1H-cyclopenta[a]phenanthren-17-yl)pentanoyl)-D-valinate], in test [1], the “Minimum inhibitory concentration S. aureus ATCC25923” value was 8 µg/mL (≈ 12.9 µM) and the MIC was determined as 12.5 µM (≈ 7.74 µg/mL). For the same compound, in test [2], the “Minimum inhibitory concentration E. faecalis ATCC29212” value is 32 µg/mL (≈ 51.7 µM) and the MIC stood at 50 µM (≈ 30.9 µg/mL). In addition, in test [3], the “Minimum inhibitory concentration E. coli ATCC28922” value turned out to be 32 µg/mL (≈ 51.7 µM) and the MIC is 50 µM (≈ 30.9 µg/mL). Further, in test [4], the “Minimum inhibitory concentration P. aeruginosa ATCC27853” value was 32 µg/mL (≈ 51.7 µM) and the MIC is given as 50 µM (≈ 30.9 µg/mL).

As for `COC(=O)[C@@H](NC(=O)CC[C@@H](C)[C@H]1CCC2C3CC[C@@H]4C[C@@H](NCCCN5CCN(CCCN)CC5)CC[C@]4(C)C3CC[C@@]21C)C(C)C` (stereo partly drawn) [Compound S056, methyl ((4R)-4-((3S,5R,10S,13R,17R)-3-((3-(4-(3-aminopropyl)piperazin-1-yl)propyl)amino)-10,13-dimethylhexadecahydro-1H-cyclopenta[a]phenanthren-17-yl)pentanoyl)-L-valinate], the MIC is 200 µM and 128 µg/mL in test [1] (setting [5]); 100 µM and 64 µg/mL in test [2] (setting [6]); 200 µM and 128 µg/mL in test [3] (setting [7]); > 200 µM and > 128 µg/mL in test [4] (setting [8]).

Take `COC(=O)[C@H](Cc1ccccc1)NC(=O)CC[C@@H](C)[C@H]1CCC2C3CC[C@@H]4C[C@@H](NCCCN(CCCN)CCCN)CC[C@]4(C)C3C[C@H](O)[C@@]21C` (stereo partly drawn) [Compound S055, methyl ((4R)-4-((3S,5R,10S,12S,13R,17R)-3-((3-(bis(3-aminopropyl)amino)propyl)amino)-12-hydroxy-10,13-dimethylhexadecahydro-1H-cyclopenta[a]phenanthren-17-yl)pentanoyl)-L-phenylalaninate]: the MIC in test [1] (setting [5]) was 50 µM and 32 µg/mL; in test [2] (setting [6]) it was 50 µM and 32 µg/mL; in test [3] (setting [7]), 25 µM and 16 µg/mL; in test [4] (setting [8]), 100 µM and 64 µg/mL.

Regarding `COC(=O)[C@H](Cc1ccccc1)NC(=O)CC[C@@H](C)[C@H]1CCC2C3C(CC[C@@]21C)[C@@]1(C)CC[C@H](NCCCCCCCCCCN)C[C@H]1C[C@H]3O` (stereo partly drawn) [Compound S032, methyl ((4R)-4-((3S,5S,7R,10S,13R,17R)-3-((10-aminodecyl)amino)-7-hydroxy-10,13-dimethylhexadecahydro-1H-cyclopenta[a]phenanthren-17-yl)pentanoyl)-L-phenylalaninate], the MIC is 50 µM and 32 µg/mL in test [1] (setting [5]); 12.5 µM and 8 µg/mL in test [2] (setting [6]); 50 µM and 32 µg/mL in test [3] (setting [7]); 200 µM and 128 µg/mL in test [4] (setting [8]).

Take `COC(=O)CNC(=O)CC[C@@H](C)[C@H]1CCC2C3C(CC[C@@]21C)[C@@]1(C)CC[C@H](NCCCNCCCCNCCCN)C[C@H]1C[C@H]3O` (stereo partly drawn) [Compound S027, methyl ((4R)-4-((3S,5S,7R,10S,13R,17R)-3-((3-((4-((3-aminopropyl)amino)butyl)amino)propyl)amino)-7-hydroxy-10,13-dimethylhexadecahydro-1H-cyclopenta[a]phenanthren-17-yl)pentanoyl)glycinate]: in test [1], the “Minimum inhibitory concentration S. aureus ATCC25923” value amounted to 4 µg/mL (≈ 6.17 µM) and the MIC stood at 6.25 µM (≈ 4.05 µg/mL). In addition, in test [2], the “Minimum inhibitory concentration E. faecalis ATCC29212” value was 16 µg/mL (≈ 24.7 µM) and the MIC is recorded as 25 µM (≈ 16.2 µg/mL). In test [3], the “Minimum inhibitory concentration E. coli ATCC28922” value was 8 µg/mL (≈ 12.3 µM) and the MIC was 12.5 µM (≈ 8.1 µg/mL). Further, in test [4], the “Minimum inhibitory concentration P. aeruginosa ATCC27853” value was determined as 32 µg/mL (≈ 49.4 µM) and the MIC was 50 µM (≈ 32.4 µg/mL).
